Measurements: patent publication US10780127B2, “Method for producing fermented milk having high angiotensin converting enzyme inhibitory activity and method for producing physiologically active peptide” (NATIONAL UNIVERSITY CORPORATION TOTTORI UNIVERSITY, priority 2016, dated 2020)
Where two headings read alike, the source gives them in different places. Peptide text beside a SMILES is read from it.

How the values were obtained:
[1] = target: T1, ACE (Homo sapiens, UniProt P12821); experiment: Reported IC50 value of YP for ACE; format: biochemical; settings: corresponds to 720 μM; read-out: IC50 value of YP for ACE, corresponding mass concentration (converted)
[2] = target: T1, ACE; settings: reported value; read-out: IC50 value of YP for ACE; cited from earlier work

T1 sequence (P12821 30-1306, species assumed): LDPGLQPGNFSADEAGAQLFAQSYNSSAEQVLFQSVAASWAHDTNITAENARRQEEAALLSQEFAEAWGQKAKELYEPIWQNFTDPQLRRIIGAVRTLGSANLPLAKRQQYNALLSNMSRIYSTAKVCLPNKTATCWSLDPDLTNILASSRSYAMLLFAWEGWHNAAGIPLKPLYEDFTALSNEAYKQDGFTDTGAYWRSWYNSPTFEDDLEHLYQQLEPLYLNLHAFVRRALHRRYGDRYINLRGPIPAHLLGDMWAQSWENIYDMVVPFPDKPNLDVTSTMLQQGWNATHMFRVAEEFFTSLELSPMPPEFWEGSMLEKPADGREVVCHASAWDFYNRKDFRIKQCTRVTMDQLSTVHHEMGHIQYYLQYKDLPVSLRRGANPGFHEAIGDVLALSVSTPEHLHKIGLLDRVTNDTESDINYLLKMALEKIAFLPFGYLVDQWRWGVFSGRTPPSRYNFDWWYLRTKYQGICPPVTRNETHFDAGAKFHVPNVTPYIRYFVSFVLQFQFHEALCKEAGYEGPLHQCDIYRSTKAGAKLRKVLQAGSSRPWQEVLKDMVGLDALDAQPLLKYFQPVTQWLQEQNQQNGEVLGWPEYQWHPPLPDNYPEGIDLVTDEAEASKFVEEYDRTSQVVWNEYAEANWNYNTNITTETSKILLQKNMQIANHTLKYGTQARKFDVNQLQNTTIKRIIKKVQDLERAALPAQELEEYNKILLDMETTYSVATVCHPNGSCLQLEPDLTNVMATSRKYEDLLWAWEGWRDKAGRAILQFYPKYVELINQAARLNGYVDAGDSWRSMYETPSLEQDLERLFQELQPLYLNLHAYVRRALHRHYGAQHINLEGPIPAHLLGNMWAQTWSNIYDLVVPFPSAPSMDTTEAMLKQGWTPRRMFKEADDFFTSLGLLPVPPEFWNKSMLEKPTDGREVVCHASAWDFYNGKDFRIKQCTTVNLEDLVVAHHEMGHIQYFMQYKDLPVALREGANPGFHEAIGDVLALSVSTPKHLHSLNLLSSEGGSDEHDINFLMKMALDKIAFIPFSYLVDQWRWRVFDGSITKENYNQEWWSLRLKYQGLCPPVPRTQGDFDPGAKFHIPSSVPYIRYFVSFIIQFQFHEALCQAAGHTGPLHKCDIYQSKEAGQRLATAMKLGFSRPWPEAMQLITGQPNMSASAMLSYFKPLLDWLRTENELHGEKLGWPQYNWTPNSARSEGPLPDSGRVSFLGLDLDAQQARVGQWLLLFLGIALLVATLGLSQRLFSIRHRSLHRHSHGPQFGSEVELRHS

IC50 [1]: 719 µM
SMILES: N[C@@H](Cc1ccc(O)cc1)C(=O)N1CCC[C@H]1C(=O)O [YP, Tyr-Pro] (H-Tyr-Pro-OH)
IC50 [2]: 720 µM
